Measurements from patent publication US20230346743A1, “COMBINATION CANCER THERAPIES” (The Board of Regents of the University of Oklahoma, priority 2018, published 2023).

What was measured:
Mycobacterium bovis BCG = details: Table of Brown et al., 2004; cited from earlier work
parental SKOV-3 cells = assay: MTT cytotoxicity assay; type: cell-based, human; details: parental SKOV-3 p53 null cells
TP21 gene = assay: qRT-PCR of TP21 in SKOV3 cells; type: cell-based, human; details: SKOV3 parental (p53 null) and R273H m-p53 cells; SHetA2 10 µM, PRIMA-1 20 µM, 16 h
p21 = assay: Western blots of p21 in ovarian cancer cell lines; type: cell-based, human; details: A2780, SKOV3, SKOV3 R273H, SKOV3 R248W
Procedure: Proteins were extracted from cell cultures using M-PER mammalian protein extraction reagent (ThermoFisher, Waltham, MA, USA) and volumes corresponding to 30 µg determined with BCA reagent (ThermoFisher, Waltham, MA, USA) were electrophoresed into a SDS-PAGE gel and transferred to PVDF membranes. Membranes were blocked (5% dry skim milk powder in TBST buffer) for at least 1 h or overnight, washed thrice with TBST and then incubated with primary antibody: p53 DO-1, β-actin, histone H3, GAPDH (Santa Cruz Biotechnology, Dallas, TX, USA) and mortalin, Tom20, V5 tag antibodies, p21, PARP, SLC7A11, caspase 3 (Cell Signaling Technology, Danvers, MA, USA) for at least 1 h or overnight. After three washes, membranes were incubated with anti-mouse HRP conjugated (Santa Cruz Biotechnology, Dallas, TX, USA) or anti-Rabbit HRP conjugated (Cell Signaling Technology, Danvers, MA, USA) for 40 min. Membranes then were washed and developed with ECL reagents (BioRad, Hercules, CA, USA). Bands were imaged and quantified (ChemiDoc imaging system with Image Lab Software/BioRad).

SKOV3 R273H = assay: MTT cytotoxicity assay; type: cell-based; details: Homo sapiens, SK-OV-3; SKOV3 permanently transfected with R273H m-p53, MTT
Procedure: Cells plated at 2000 cells/well in 96 well microtiter plates were incubated for 36-48 h and treated with a range of doses and combinations of SHetA2 and PRIMA-1 or PRIMA-1^MET, or the same volume of DMSO solvent for 72 h of incubation. The percentage of growth for single drug treatments or fold effect (1 - ratio of treated/untreated growth) was measured using the CellTiter 96 AQueous Non-Radioactive Cell Proliferation Assay (Promega, Madison, WI, USA) and the BioTeK SYNERGY H1 (BioTeK, Winooski, VT, USA). Each experiment was performed in triplicate and repeated 2-3 times.
The potencies (IC50′s) of SHetA2 or PRIMA-1 were determined using GraphPad Prism 6 software analysis of average MTT Optical Density vs drug dose. […] Single drug treatments at doses surrounding the IC50 values were evaluated parallel. All treatments were performed in triplicate and averages used to draw isobolograms and calculate combination indices (CI) and dose-reduction indices (DRIs) using CompuSyn Software according to the Chou and Talalay method (op cit). All experiments were repeated at least twice for each cell line to confirm results.

[1] = infusion in cancer patients; cited from earlier work
[2] = Toxicity in the MESOV mouse model (body weight, ascites, kidney and liver histology); type: in vivo
Procedure: (§1) Four-week-old female athymic nude mice (NCr-Foxn1^nu) were obtained from Taconic Biosciences under an approved Institutional Animal Care and Use Committee (IACUC) protocol. Mice were acclimatized for two weeks, fed with a standard diet and ear tagged during the acclimatization period. The timing to tumor development after intraperitoneal injection with various amounts of MESOV cells was determined in a pilot study prior. In the intervention experiment, 6-week-old mice were injected with 20 million MESOV human ovarian cancer cells in their intraperitoneal region. Drug treatment was initiated 4 weeks after the injection of cancer cells. Mice were randomized to four treatment groups before the start of treatment based on their body weight. There was no significant (one-way ANOVA, p >0.999) difference in body weight between groups at the start of treatment. Twelve mice were allocated to each group based on the power analysis performed while designing experiment. The sample size was determined to provide over 80% power to detect a 915 mm^3 difference in tumor volume between PRIMA-1^MET treatment alone and the drug combination treatment using a two-sided 0.05 level t-test. SHetA2 was administered by gavage at 60 mg/kg in 30% Kolliphor HS15 (Sigma). Controls were gavaged with Kolliphor HS15 (30% in water). PRIMA-1^MET (10 mg/kg) was dissolved in phosphate buffered saline and injected into the peritoneum of mice every other day. Initially SHetA2 dosing was administered every day for two weeks in SHetA2 alone and drug combination groups, and then switched to every other day for the next three weeks due to the stress caused to the mice by daily gavage. Oral gavaging was performed with sterile disposable plastic feeding tubes 20 ga × 38 mm (Instech Laboratories, Inc., Plymouth Meeting, PA, USA). Three mice in the drug combination group died after two weeks of drug treatment due to gavaging incidents. Body weights were recorded and animal health was monitored weekly. After the end of drug intervention period, all mice were euthanized by CO2 asphyxiation followed by exsanguination, their tumors and other vital organs were collected for further analysis. After measuring the total tumor weight, a portion of the tumors were snap frozen in liquid nitrogen and another portion was formalin fixed. The formalin fixed tissue samples were paraffin embedded, sectioned and stained with hematoxylin and eosins for histology studies. An experienced pathologist reviewed blinded histology slides for kidney and liver toxicity.

[3] = system: MESOV human ovarian cancer cells; assay: Tumor establishment after intraperitoneal injection of MESOV cells (secondary chemoprevention model); type: in vivo; details: nu/nu mice, MESOV i.p.
Procedure: as §1, with “The sample size was determined to provide over 80% power to detect a 915 mm^3 difference in tumor volume between PRIMA-1^MET treatment alone and the drug combination treatment using a two-sided 0.05 level t-test. SHetA2 was administered by gavage at 60 mg/kg in 30% Kolliphor HS15 (Sigma).” left out, “PRIMA-1^MET” left out, “toxicity. Presence or absence of tumor at the end of the treatment period was used as the primary outcome measure. […] Two by two logistic regression was used to compare the four treatment groups (Untreated control, SHetA2, […] combination) in the study. Mice in the first 3 groups had complete data, while 3 mice in the combo group died early and had zero tumor weights. […]” for “toxicity.”

R282W m-p53 = assay: P53 luciferase reporter assay in MESOV cells; type: cell-based, human; details: 60 µM PRIMA-1^MET, 24 h
Procedure: To determine the transcriptional activity of p53, MESOV cells were transfected with PG13-Luc plasmids. Approximately 5,000 transfected cells were seeded on to each well of 96-well plate and incubated overnight. These cells were treated with either control solvent, 5 µM SHetA2 or 60 µM PRIMA-1^MET for 24 h. Luciferase activity of the reporter was measured with the One-glo luciferase reporter assay kit (Promega, Madison, WI, USA) and a Biotek Synergy H1 plate reader (BioteK, Winooski, VT, USA). The MTT assay was performed in parallel cultures and used to normalize the p53 reporter activity to the amount of viable cells.

Cervical Cancer = assay: Dose reduction index at various fold effects in cervical cancer; type: cell-based, human; set-up: Palbociclib Dose: unit not given beside the values; details: cell line not named
Description: Combination Indices (CI's) were derived to determine the level of synergy using the Chow and Talalay method. […] The Dose Reduction Indices (DRIs) were derived to determine the level of reduction for one drug that could be allowed by addition of the second drug at various fold effects (Fas) of the combination treatment (Table 16).

SMILES | range (Mycobacterium bovis BCG) | also measured
CC(C)CCOc1ccc(NC(=S)Nc2ccc(OCCC(C)C)cc2)cc1 | 0.5-1.0 | 
COC(=O)c1ccc(C(=O)Oc2ccc3c(c2)OC(C)(C)C=C3C)cc1 | 2.0-4.0 | 
CCOC(=O)c1ccc(NC(=S)Nc2ccc3c(c2)C(C)(C)CC(C)(C)O3)cc1 | 5.0-10.0 | 
CC(=C/C=N/NC(N)=S)/C=C/c1ccc2c(c1)C(C)CC(C)(C)N2C (stereo not shown) | 10.0-20.0 | 
CC1(C)CC(C)(C)c2cc(NC(=S)Nc3ccc([N+](=O)[O-])cc3)ccc2O1 | 20.0-40.0 | 
CCOC(=O)c1ccc(NC(=S)Nc2ccc3c(c2)C(C)=CC(C)(C)N3C)cc1 | 20.0-40.0 | 
CCOC(=O)c1ccc(NC(=O)Nc2ccc3c(c2)C(C)(C)CC(C)(C)O3)cc1 | 20.0-40.0 | 
CC1=CC(C)(C)N(C)c2ccc(NC(=S)Nc3ccc([N+](=O)[O-])cc3)cc21 | 20.0-40.0 | 
CCOC(=O)c1ccc(NC(=O)Nc2ccc3c(c2)C(C)(C)CC(C)(C)S3)cc1 | 20.0-40.0 | 
CCOC(=O)c1ccc(NC(=O)Nc2ccc3c(c2)C(C)=CC(C)(C)N3C)cc1 | 20.0-40.0 | 
CCOC(=O)c1ccc(NC(=S)Nc2ccc3c(c2)C(C)(C)CC(C)(C)S3)cc1 | 20.0-40.0 | 
COc1ccc2c(c1NC(=S)Nc1ccc([N+](=O)[O-])cc1)C(C)(C)COC2(C)C | 20.0-40.0 | 
CCOC(=O)c1ccc(NC(=S)Nc2cccc3c2OC(C)(C)CC3(C)C)cc1 | 20.0-40.0 | 
COc1ccc2c(c1NC(=S)NC(=O)c1ccc([N+](=O)[O-])cc1)C(C)(C)COC2(C)C | 20.0-40.0 | 
CC1(C)CC(C)(C)c2cccc(NC(=S)Nc3ccc([N+](=O)[O-])cc3)c2O1 | 20.0-40.0 | 
CCOC(=O)c1ccc(NC(=O)Nc2cccc3c2OC(C)(C)CC3(C)C)cc1 | 20.0-40.0 | 
O=C1C2CCN(CC2)C1(CO)CO [PRIMA-1, 2,2-Bishydroxymethyl-1-azabicyclo[2.2.2]octan-3-one, reference compound] |  | PRIMA-1 sensitivity (parental SKOV-3 cells): resistant; TP21 transcription (qRT-PCR) (TP21 gene): did not induce TP21 transcription; p21 protein (Western blot) (p21): only induced p21 protein expression in A2780 (wt p53); IC50 (SKOV3 R273H): 40 µM
COCC1(CO)C(=O)C2CCN1CC2 (stereo not shown) [PRIMA-1^MET, 2-(hydroxymethyl)-2-(methoxymethyl)-1-azabicyclo [2.2.2]octan-3-one] |  | Clinical safety [1]: relatively safe with fully reversible central nervous system-related side effects; Kidney or liver toxicity (H & E histology) ([2]; mouse, in vivo, ip): did not cause kidney or liver toxicity; Average body weights compared with mock group ([2]; nu/nu mice, MESOV i.p.): significantly higher than the mock group; Effects on body weight or ascites (abdominal size) ([2]; nu/nu mice, MESOV i.p.): no significant effects on body weight or ascites; OR for preventing tumor development (additive logistic regression model) [3]: 4.464; Tumor-free rates ([3]; SHetA2 60 mg/kg gavage, PRIMA-1^MET 10 mg/kg i.p., treatment from day 28 for 38 days): 25%; p53 transcriptional activity (PG13-Luc reporter) (R282W m-p53): reactivation of R282W m-p53 in MESOV was observed
CC(=O)c1c(C)c2cnc(Nc3ccc(N4CCNCC4)cn3)nc2n(C2CCCC2)c1=O [Palbociclib, reference compound] |  | Palbociclib Dose (Cervical Cancer; Fold Effect (Fa) 0.05): 7.16; Palbociclib Dose (Cervical Cancer; Fold Effect (Fa) 0.75): 24.03; Palbociclib Dose (Cervical Cancer; Fold Effect (Fa) 0.90): 80.72; Palbociclib Dose (Cervical Cancer; Fold Effect (Fa) 0.95): 184.00
